# Measured values published in PubChem BioAssay AID1919017 (Molecular Pharmacology Branch, DTP, NCI, 2023).
# Tested on: SW1271 complex spheroids with HUVEC/MSC, growth, % test/control
# Assay: Anticancer human tumor SW1271 cell line growth inhibition [AhR];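 further: spheroids exposed to agents for 7 days before readout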
# Details: for IC50: curve of first compound; for viability, T/C: stronger effect = lower value
# From the text: Multicellular complex tumor spheroid response to aryl hydrocarbon receptor antagonists in combination with a variety of drugs and investigational agents in selected tumor cell lines
# The current study was undertaken to assess response to aryl hydrocarbon receptor antagonists in combination with standard-of-care drugs and investigational agents in solid tumor complex spheroid models. Complex spheroids include a stromal component modeled by human endothelial cells (HUVEC) and fibroblasts modeled by human mesenchymal stem cells (MSCs). The concentration ranges selected for each drug and investigational agent were based upon clinically achievable concentrations if the clinical Cmax of the agent was known.
# Compounds. The drugs and investigational agents: BAY 2416964 (NSC825713), GNF351 (NSC835774), CH-223191 (NSC835775), CPI-455 (NSC825282), aza-TdCyd (NSC777586), decitabine (NSC127716), belinostat (NSC758774), entinostat (NSC756642), pevonedistat (NSC761192), tazemetostat (NSC777109), talazoparib (NSC765396), olaparib (NSC753686), selinexor (NSC780203), nedisertib (M3814, NSC802822), bortezomib (NSC756655), venetoclax (NSC766270), doxorubicin (NSC123127), elimusertib (BAY189344, NSC800525), ceralasertib (AZD6738, NSC777638), TAK-243 (NSC785004), alisertib (NSC759677), etoposide (NSC141540), topotecan (NSC609699), eribulin (NSC707389), gemcitabine (NSC613327), carboplatin (NSC241240), cisplatin (NSC119875), and SN-38 (NSC673596) were obtained from the National Cancer Institute (NCI) Developmental Therapeutics Program Chemical Repository (32). The FDA-approved anticancer drug set is available from the Developmental Therapeutics Program at https://dtp.cancer.gov/organization/dscb/obtaining/available plates.htm. […] The stock solutions were prepared in dimethyl sulfoxide (DMSO, Sigma-Aldrich, St. Louis, MO, cat. D2650), except for the platinum compounds which were prepared in saline (Quality Biological, Gaithersburg, MD, cat. 114-055-101), at 800-fold the tested concentration and stored at -70 degrees C prior to their use. All drugs and investigational agents were tested over a range starting from a high concentration at or near the clinical Cmax and decreasing in half-log increments. If the clinical Cmax for an agent had not been determined, the highest concentration tested was 10 microM (Table 1).
# Cell Culture. All cells were maintained in an incubator at 37 degrees C and 5% CO2 with 95% humidity. The PDC lines were cultured according to standard operating procedures established by the NCI PDMR (https://pdmr.cancer.gov). Briefly, all PDCs were thawed and cultured in Matrigel-coated flasks prepared with a working solution of 1X Ham's F-12 nutrient mix, without supplementation (Invitrogen, Waltham, MA, cat. 11765054), 100 U/mL penicillin-streptomycin (Invitrogen, cat. 15140122), and 2.5% Matrigel (Corning Inc., Corning, NY, cat. 354248) for the first three passages. All PDCs were cultured in complete DMEM/F-12 media containing advanced DMEM/F-12 (Invitrogen, cat. 12634028), 4.9% defined fetal bovine serum, heat inactivated (HyClone Laboratories Inc., Logan, UT, cat. SH30070.03HI), 389 ng/mL hydrocortisone (Sigma-Aldrich, cat. H4001), 9.7 ng/mL human EGF recombinant protein (Invitrogen, cat. PHG0313), 23.4 microg/mL adenine (Sigma-Aldrich, cat. A2786), 97.3 U/mL penicillin-streptomycin (Invitrogen, cat. 15140122), 1.9 mM L-glutamine (Invitrogen, cat. 25030081), and 9.7 microM Y-27632 dihydrochloride (Tocris Bioscience, Bristol, United Kingdom, cat. 1254). The PDCs were cultured in complete DMEM/F12 media without 10 microM Y-27632 dihydrochloride for at least two passages prior to the screen. The established cell lines NCI-H1341 and […] were cultured in DMEM/F-12, HEPES (Invitrogen, cat. 11330032), 5% defined fetal bovine serum (HyClone Laboratories Inc., cat. SH30070.03), ITS premix universal culture supplement [insulin (5 microg/mL), transferrin (5 microg/mL), and selenious acid (5 ng/mL)] […]
structure (smiles),measurement,setting,value
CCc1c2c(nc3ccc(O)cc13)-c1cc3c(c(=O)n1C2)COC(=O)[C@]3(O)CC + Cc1ccccc1N=Nc1ccc(NC(=O)c2ccnn2C)c(C)c1,IC50,second compound 0.1 µM,300 nM
same,IC50,second compound 0.316 µM,67.1 nM
same,IC50,second compound 1 µM,210 nM
same,IC50,second compound 3.16 µM,> 300 nM
same,IC50,second compound 10 µM,78.8 nM
same,"viability, T/C","second compound 0.1 µM, first compound 0.000949 µM",72.5%
same,"viability, T/C","second compound 0.1 µM, first compound 0.003 µM",99%
same,"viability, T/C","second compound 0.1 µM, first compound 0.00949 µM",64%
same,"viability, T/C","second compound 0.1 µM, first compound 0.03 µM",56.2%
same,"viability, T/C","second compound 0.1 µM, first compound 0.0949 µM",47.7%
same,"viability, T/C","second compound 0.1 µM, first compound 0.3 µM",54.7%
same,"viability, T/C","second compound 0.316 µM, first compound 0.000949 µM",90.9%
same,"viability, T/C","second compound 0.316 µM, first compound 0.003 µM",85.4%
same,"viability, T/C","second compound 0.316 µM, first compound 0.00949 µM",72.4%
same,"viability, T/C","second compound 0.316 µM, first compound 0.03 µM",54.2%
same,"viability, T/C","second compound 0.316 µM, first compound 0.0949 µM",46.4%
same,"viability, T/C","second compound 0.316 µM, first compound 0.3 µM",48.7%
same,"viability, T/C","second compound 1 µM, first compound 0.000949 µM",81.7%
same,"viability, T/C","second compound 1 µM, first compound 0.003 µM",74.3%
same,"viability, T/C","second compound 1 µM, first compound 0.00949 µM",72.5%
same,"viability, T/C","second compound 1 µM, first compound 0.03 µM",55%
same,"viability, T/C","second compound 1 µM, first compound 0.0949 µM",59.6%
same,"viability, T/C","second compound 1 µM, first compound 0.3 µM",46.5%
same,"viability, T/C","second compound 3.16 µM, first compound 0.000949 µM",79.7%
same,"viability, T/C","second compound 3.16 µM, first compound 0.003 µM",85.6%
same,"viability, T/C","second compound 3.16 µM, first compound 0.00949 µM",77.1%
same,"viability, T/C","second compound 3.16 µM, first compound 0.03 µM",63.6%
same,"viability, T/C","second compound 3.16 µM, first compound 0.0949 µM",54.3%
same,"viability, T/C","second compound 3.16 µM, first compound 0.3 µM",52.7%
same,"viability, T/C","second compound 10 µM, first compound 0.000949 µM",82%
same,"viability, T/C","second compound 10 µM, first compound 0.003 µM",82.7%
same,"viability, T/C","second compound 10 µM, first compound 0.00949 µM",83.9%
same,"viability, T/C","second compound 10 µM, first compound 0.03 µM",59.6%
same,"viability, T/C","second compound 10 µM, first compound 0.0949 µM",47.5%
same,"viability, T/C","second compound 10 µM, first compound 0.3 µM",48.9%
Cn1ncnc1C1c2n[nH]c(=O)c3cc(F)cc(c23)NC1c1ccc(F)cc1 (stereo not given) + Cc1ccccc1N=Nc1ccc(NC(=O)c2ccnn2C)c(C)c1,IC50,second compound 0.1 µM,> 100 nM
same,IC50,second compound 0.316 µM,> 100 nM
same,IC50,second compound 1 µM,> 100 nM
same,IC50,second compound 3.16 µM,> 100 nM
same,IC50,second compound 10 µM,> 100 nM
same,"viability, T/C","second compound 0.1 µM, first compound 0.000316 µM",118%
same,"viability, T/C","second compound 0.1 µM, first compound 0.001 µM",120%
same,"viability, T/C","second compound 0.1 µM, first compound 0.00316 µM",133%
same,"viability, T/C","second compound 0.1 µM, first compound 0.01 µM",109%
same,"viability, T/C","second compound 0.1 µM, first compound 0.0316 µM",117%
same,"viability, T/C","second compound 0.1 µM, first compound 0.1 µM",116%
same,"viability, T/C","second compound 0.316 µM, first compound 0.000316 µM",124%
same,"viability, T/C","second compound 0.316 µM, first compound 0.001 µM",127%
same,"viability, T/C","second compound 0.316 µM, first compound 0.00316 µM",109%
same,"viability, T/C","second compound 0.316 µM, first compound 0.01 µM",118%
same,"viability, T/C","second compound 0.316 µM, first compound 0.0316 µM",121%
same,"viability, T/C","second compound 0.316 µM, first compound 0.1 µM",108%
same,"viability, T/C","second compound 1 µM, first compound 0.000316 µM",105%
same,"viability, T/C","second compound 1 µM, first compound 0.001 µM",93.8%
same,"viability, T/C","second compound 1 µM, first compound 0.00316 µM",117%
same,"viability, T/C","second compound 1 µM, first compound 0.01 µM",117%
same,"viability, T/C","second compound 1 µM, first compound 0.0316 µM",99.3%
same,"viability, T/C","second compound 1 µM, first compound 0.1 µM",114%
same,"viability, T/C","second compound 3.16 µM, first compound 0.000316 µM",96.1%
same,"viability, T/C","second compound 3.16 µM, first compound 0.001 µM",127%
same,"viability, T/C","second compound 3.16 µM, first compound 0.00316 µM",124%
same,"viability, T/C","second compound 3.16 µM, first compound 0.01 µM",122%
same,"viability, T/C","second compound 3.16 µM, first compound 0.0316 µM",97.5%
same,"viability, T/C","second compound 3.16 µM, first compound 0.1 µM",131%
same,"viability, T/C","second compound 10 µM, first compound 0.000316 µM",118%
same,"viability, T/C","second compound 10 µM, first compound 0.001 µM",124%
same,"viability, T/C","second compound 10 µM, first compound 0.00316 µM",110%
same,"viability, T/C","second compound 10 µM, first compound 0.01 µM",94.5%
same,"viability, T/C","second compound 10 µM, first compound 0.0316 µM",90.5%
same,"viability, T/C","second compound 10 µM, first compound 0.1 µM",82.9%
